Laboratory results published in the supplement of paper PMC10307832.

Key:
Assay in all cases: relative viability (nuclei count vs DMSO), 5 days (fraction); higher = more cells survive
Crizotinib + Linsitinib = compound: C[C@@H](Oc1cc(-c2cnn(C3CCNCC3)c2)cnc1N)c1c(Cl)ccc(F)c1Cl [Crizotinib] + C[C@]1(O)C[C@@H](c2nc(-c3ccc4ccc(-c5ccccc5)nc4c3)c3c(N)nccn32)C1 [Linsitinib] (partner 1 µM)
Outline: (§1)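 Lung cancer cell lines, seeded in 1536-well plates, were treated the following day by pin tool with a single drug or with five library-drug doses (not always all listed) in √10 steps on top of a fixed anchor-drug dose. Cells were fixed and nuclei stained in one step after 5 days, and nuclei were counted. Relative viability is the nuclei count for treated wells divided by that for vehicle wells, reported as medians of duplicate plates.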

Carfilzomib = compound: CC(C)C[C@H](NC(=O)[C@H](CCc1ccccc1)NC(=O)CN1CCOCC1)C(=O)N[C@@H](Cc1ccccc1)C(=O)N[C@@H](CC(C)C)C(=O)[C@@]1(C)CO1 [Carfilzomib]
Outline: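 Acceptance criteria were a control CV below 25% and at least one doubling per plate. Lung cancer cell lines in 1536-well plates got five library-drug doses (not always all listed) √10 apart by pinning and were left 5 days with no medium change. Viability divides treated-well nuclei by vehicle-well nuclei and is the median across plates. Nuclei were counted by MetaXpress from 4× Hoechst images.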

Crizotinib + Luminespib = compound: C[C@@H](Oc1cc(-c2cnn(C3CCNCC3)c2)cnc1N)c1c(Cl)ccc(F)c1Cl [Crizotinib] + CCNC(=O)c1noc(-c2cc(C(C)C)c(O)cc2O)c1-c1ccc(CN2CCOCC2)cc1 [Luminespib] (partner 0.01 µM)
Outline: as §1

Cell Line	relative viability (Crizotinib + Linsitinib; first compound 0.01 µM)	relative viability (Crizotinib + Linsitinib; first compound 0.03162 µM)	relative viability (Crizotinib + Linsitinib; first compound 0.1 µM)	relative viability (Crizotinib + Linsitinib; first compound 0.3162 µM)	relative viability (Crizotinib + Linsitinib; first compound 1 µM)	relative viability (Carfilzomib; 0.001 µM)	relative viability (Carfilzomib; 0.003162 µM)	relative viability (Carfilzomib; 0.01 µM)	relative viability (Carfilzomib; 0.03162 µM)	relative viability (Carfilzomib; 0.1 µM)	relative viability (Crizotinib + Luminespib; first compound 0.01 µM)	relative viability (Crizotinib + Luminespib; first compound 0.03162 µM)	relative viability (Crizotinib + Luminespib; first compound 0.1 µM)	relative viability (Crizotinib + Luminespib; first compound 0.3162 µM)	relative viability (Crizotinib + Luminespib; first compound 1 µM)
Calu-6	0.939	1.05	0.861	0.938	0.955	0.992	1.09	0.92	0.306	0.11	–	–	–	–	–
BEN	0.843	0.844	0.818	1.04	0.916	0.902	1.09	0.944	0.843	0.433	0.504	0.301	0.38	0.198	0.549
NCI-H1651	1.01	1.01	0.955	1.06	1.07	0.964	1.01	0.879	0.327	0.12	0.793	0.74	0.831	1.09	0.942
NCI-H2087	0.966	0.976	0.942	0.92	1.07	0.989	1.06	0.586	0.0747	0.0676	0.18	0.181	0.168	–	0.134
NCI-H520	0.831	0.97	0.985	1.04	1.05	0.994	1.06	0.782	0.187	0.199	0.212	0.258	0.243	0.258	0.231
NCI-H460	0.736	0.84	0.718	0.847	–	0.929	1.01	1	0.739	0.0357	0.0237	0.0313	0.0367	0.0315	0.0386
SK-MES-1	1.02	1.1	1.15	0.982	–	0.987	1.05	1.06	0.782	0.186	0.669	0.827	0.771	0.712	0.76
NCI-H661	0.552	0.472	0.521	0.582	0.759	0.986	1.05	1.02	0.995	0.535	0.832	0.92	0.892	–	0.908
NCI-H1993	0.711	0.729	0.71	0.76	0.71	0.943	0.999	1.01	0.818	0.426	0.905	0.889	–	0.852	–
NCI-H23	0.557	0.642	0.619	–	0.774	0.847	1.14	0.856	0.172	0.161	0.242	0.221	0.206	0.212	0.236
LCLC-97TM1	0.17	0.195	0.177	0.19	0.168	0.907	1.07	0.999	0.368	0.0609	0.723	0.796	0.67	0.714	0.799
NCI-H1915	1.02	1.09	1.1	–	1.1	0.954	1.08	0.871	1	0.184	0.775	0.817	0.721	–	0.862
NCI-H2342	–	–	–	–	–	0.975	0.957	1.06	0.968	0.825	0.635	0.931	0.674	0.705	0.815
LOU-NH91	0.902	0.916	0.963	0.991	0.939	0.962	1.08	0.745	0.314	0.309	0.351	0.311	0.346	0.34	0.345
EKVX	1	0.998	1.02	1	0.975	0.913	1	1.17	0.76	0.369	0.953	–	0.947	0.939	0.865
SK-LU-1	1.07	1.12	1.22	1.14	1.11	0.968	1.22	1	0.249	0.187	0.208	0.195	0.225	0.224	0.206
A549	0.527	0.568	0.52	–	0.707	0.967	1.03	0.954	0.525	0.043	–	–	–	–	–
LXF-289	0.91	0.972	0.983	0.906	0.937	0.992	1.04	1.02	0.371	0.104	0.664	0.726	0.662	0.445	0.609
EBC-1	–	0.886	0.889	0.159	0.167	1.01	1.09	0.642	0.11	0.103	–	–	–	–	–
HCC-78	0.489	0.529	0.459	0.433	0.372	0.839	1.09	1.07	0.662	0.267	–	–	–	–	–
NCI-H1650	–	–	–	–	–	0.986	0.975	0.341	0.141	0.186	0.165	0.193	0.202	0.18	0.206
HCC-366	0.64	0.679	0.649	–	0.608	0.992	1.02	1.01	1.05	0.0704	–	–	–	–	–
NCI-H1299	0.988	0.992	1.02	0.99	0.984	1.03	1.02	1.02	0.577	0.158	–	–	–	–	–
NCI-H522	–	–	–	–	–	0.889	1.11	1.01	0.734	0.375	1.05	1.06	1.05	1.15	1.08
SW 900	–	–	–	–	–	0.747	0.883	0.288	0.161	0.192	0.172	0.164	0.19	0.194	0.175
ChaGo-K-1	–	–	–	–	–	0.884	1.05	1.01	0.864	0.304	0.438	0.546	0.517	0.526	0.747
